Test results reported in patent US12655145B2, “P2X3 modulators” (GlaxoSmithKline Intellectual Property (No. 3) Limited, priority 2020, dated 2026).

The compounds below were run against T1, P2X3 (Homo sapiens, UniProt P56373) (assay: P2X3 Antagonist Assay (FLIPR calcium, Fluo-8, HEK293 cells transfected with human ion channel cDNAs, αβ-meATP stimulation)). Conditions: HEK293, @ 1 μM, antagonist mode, αβ-meATP 3 μM, read-out: P2X3 IC50 column, given as % @ 1 μM.
T1 construct: expressed in transfected cells; host or cells: HEK293
T1 sequence (P56373 1-397): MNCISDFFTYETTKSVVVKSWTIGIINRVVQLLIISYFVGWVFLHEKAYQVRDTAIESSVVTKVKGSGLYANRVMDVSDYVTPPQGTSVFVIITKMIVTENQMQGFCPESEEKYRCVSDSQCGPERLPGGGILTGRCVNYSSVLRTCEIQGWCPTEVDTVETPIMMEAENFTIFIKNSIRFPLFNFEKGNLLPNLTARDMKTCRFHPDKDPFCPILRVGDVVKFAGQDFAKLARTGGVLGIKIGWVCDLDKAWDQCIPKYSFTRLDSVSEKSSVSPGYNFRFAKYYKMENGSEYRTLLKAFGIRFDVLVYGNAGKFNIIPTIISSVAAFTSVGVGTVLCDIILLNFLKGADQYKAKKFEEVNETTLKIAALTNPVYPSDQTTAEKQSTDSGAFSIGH
Format: cell-based

| inhibition at 1 µM | SMILES |
| --- | --- |
| 20% | CNC(=O)c1cc(F)c(-c2nc3cc(C)ccn3c2CC2CCC(NC(C)=O)CC2)c(F)c1 (stereo not drawn) [cis-A21, 4-(3-((4-acetamidocyclohexyl)methyl)-7-methylimidazo[1,2-a]pyridin-2-yl)-3,5-difluoro-N-methylbenzamide] |

Same assay, conditions: antagonist mode, αβ-meATP 3 μM

| IC50 | SMILES |
| --- | --- |
| > 1 µM | COC(=O)N1CCO[C@@H](Cc2c(-c3ccc(C(=O)N4CC[C@@H](O)C4)cc3F)nc3cc(Cl)ccn23)C1 [Compound A69, methyl (S)-2-((7-chloro-2-(2-fluoro-4-((R)-3-hydroxypyrrolidine-1-carbonyl)phenyl)imidazo[1,2-a]pyridin-3-yl)methyl)morpholine-4-carboxylate] |
| > 1 µM | COCCNC(=O)c1ccc(-c2nc3cc(Cl)ccn3c2C[C@H]2CN(C(=O)OC)CCO2)c(F)c1 [Compound A73, methyl (S)-2-((7-chloro-2-(2-fluoro-4-((2-methoxyethyl)carbamoyl)phenyl)imidazo[1,2-a]pyridin-3-yl)methyl)morpholine-4-carboxylate] |
| 0.1 to 1 µM | CNC(=O)c1ccc(-c2nc3cc(Cl)ccn3c2C[C@H]2CN(C(C)=O)CCO2)c(F)c1 [Compound A88, (S)-4-(3-((4-acetylmorpholin-2-yl)methyl)-7-chloroimidazo[1,2-a]pyridin-2-yl)-3-fluoro-N-methylbenzamide] |
| 0.1 to 1 µM | CCC(=O)N1CCO[C@@H](Cc2c(-c3ccc(C(=O)NC)cc3F)nc3cc(Cl)ccn23)C1 [Compound A89, (S)-4-(7-chloro-3-((4-propionylmorpholin-2-yl)methyl)imidazo-[1,2-a]pyridin-2-yl)-3-fluoro-N-methylbenzamide] |
| > 1 µM | CNC(=O)c1cc(F)c(-c2nc3cc(C)ccn3c2CC2CCC(NC(C)=O)CC2)c(F)c1 (stereo not drawn) [trans-A21, 4-(3-((4-acetamidocyclohexyl)methyl)-7-methylimidazo[1,2-a]pyridin-2-yl)-3,5-difluoro-N-methylbenzamide] |
